Results: US8426345B2, “Method of drug design” (Alchemia Limited, priority 2005, dated 2013)

Biological target: T1, Human SST5 somatostatin receptor (Homo sapiens, UniProt P35346)
T1 construct: expressed in transfected cells; host or cells: HEK-293 EBNA cells (membranes)
Test: Filter plate radio-ligand binding assay for SST5 receptor ([125I]SST-14 displacement)
Conditions: 3P library; for % SST5 radio-ligand binding displaced at conc 0.001: conc 0.001 μM; for % SST5 radio-ligand binding displaced at conc 0.10: conc 0.10 μM; for % SST5 radio-ligand binding displaced at conc 0.25: conc 0.25 μM; for % SST5 radio-ligand binding displaced at conc 0.5: conc 0.5 μM; for % SST5 radio-ligand binding displaced at conc 1.0: conc 1.0 μM; for % SST5 radio-ligand binding displaced at conc 10: conc 10 μM

T1 sequence (P35346 whole entry): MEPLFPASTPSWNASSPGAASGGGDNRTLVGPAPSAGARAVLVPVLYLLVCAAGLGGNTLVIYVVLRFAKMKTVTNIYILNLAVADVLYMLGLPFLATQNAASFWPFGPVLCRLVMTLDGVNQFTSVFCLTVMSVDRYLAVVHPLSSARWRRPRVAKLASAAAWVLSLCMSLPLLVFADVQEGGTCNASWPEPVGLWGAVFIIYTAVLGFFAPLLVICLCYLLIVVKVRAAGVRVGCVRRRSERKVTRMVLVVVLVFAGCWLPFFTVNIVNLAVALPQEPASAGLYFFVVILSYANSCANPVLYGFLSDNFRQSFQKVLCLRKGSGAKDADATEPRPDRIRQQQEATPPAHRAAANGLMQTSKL

| SMILES | % SST5 radio-ligand binding displaced at conc 0.001 | % SST5 radio-ligand binding displaced at conc 0.10 | % SST5 radio-ligand binding displaced at conc 0.25 | % SST5 radio-ligand binding displaced at conc 0.5 | % SST5 radio-ligand binding displaced at conc 1.0 | % SST5 radio-ligand binding displaced at conc 10 |
| --- | --- | --- | --- | --- | --- | --- |
| COCC1OC(OCc2ccc3ccccc3c2)C(NC(=O)CCCN)C(OCc2ccc(-c3ccccc3)cc2)C1O (mixture of isomers) [Compound 128] | − (% SST5 radio-ligand binding displaced at cone (μM) −<40%) | − (% SST5 radio-ligand binding displaced at cone (μM) −<40%) | − (% SST5 radio-ligand binding displaced at cone (μM) −<40%) | ++ (% SST5 radio-ligand binding displaced at conc (μM) >60%) | + (% SST5 radio-ligand binding displaced at cone (μM) 60>+>40%) | ++ (% SST5 radio-ligand binding displaced at conc (μM) >60%) |
| COCC1OC(OCc2ccc3ccccc3c2)C(NC(=O)CCCN)C(OCc2ccc3ccccc3c2)C1O (mixture of isomers) [Compound 129] | − (% SST5 radio-ligand binding displaced at cone (μM) −<40%) | + (% SST5 radio-ligand binding displaced at cone (μM) 60>+>40%) | − (% SST5 radio-ligand binding displaced at cone (μM) −<40%) | – | ++ (% SST5 radio-ligand binding displaced at conc (μM) >60%) | ++ (% SST5 radio-ligand binding displaced at conc (μM) >60%) |
| COCC1OC(OCc2ccc3ccccc3c2)C(NC(=O)CCCN)C(OCc2cccc(O)c2)C1O (mixture of isomers) [Compound 130] | – | – | – | – | – | ++ (% SST5 radio-ligand binding displaced at conc (μM) >60%) |
| COCC1OC(OCc2ccc3ccccc3c2)C(NC(=O)CCCN)C(OCc2ccc(-c3ccccc3)cc2)C1O (mixture of isomers) [Compound 131] | – | – | – | – | – | ++ (% SST5 radio-ligand binding displaced at conc (μM) >60%) |
| COCC1OC(OCc2ccc3ccccc3c2)C(NC(=O)CCCN)C(OCc2ccc3ccccc3c2)C1O (mixture of isomers) [Compound 132] | – | – | – | – | – | ++ (% SST5 radio-ligand binding displaced at conc (μM) >60%) |
| COCC1OC(OCc2ccc3ccccc3c2)C(NC(=O)CCCN)C(OCc2ccc(Cl)cc2)C1O (mixture of isomers) [Compound 133] | – | – | – | – | – | ++ (% SST5 radio-ligand binding displaced at conc (μM) >60%) |
| COCC1OC(OCc2ccc(Cl)cc2)C(NC(=O)CN)C(OCc2ccccc2)C1O (mixture of isomers) [Compound 160] | − (% SST5 radio-ligand binding displaced at cone (μM) −<40%) | − (% SST5 radio-ligand binding displaced at cone (μM) −<40%) | – | − (% SST5 radio-ligand binding displaced at cone (μM) −<40%) | − (% SST5 radio-ligand binding displaced at cone (μM) −<40%) | − (% SST5 radio-ligand binding displaced at cone (μM) −<40%) |
| COCC1OC(OCc2ccc(Cl)cc2)C(NC(=O)CN)C(OCc2ccc(Cl)cc2)C1O (mixture of isomers) [Compound 161] | − (% SST5 radio-ligand binding displaced at cone (μM) −<40%) | − (% SST5 radio-ligand binding displaced at cone (μM) −<40%) | – | − (% SST5 radio-ligand binding displaced at cone (μM) −<40%) | − (% SST5 radio-ligand binding displaced at cone (μM) −<40%) | ++ (% SST5 radio-ligand binding displaced at conc (μM) >60%) |
| COCC1OC(OCc2ccc(Cl)cc2)C(NC(=O)CN)C(OCc2ccc(-c3ccccc3)cc2)C1O (mixture of isomers) [Compound 162] | − (% SST5 radio-ligand binding displaced at cone (μM) −<40%) | − (% SST5 radio-ligand binding displaced at cone (μM) −<40%) | − (% SST5 radio-ligand binding displaced at cone (μM) −<40%) | − (% SST5 radio-ligand binding displaced at cone (μM) −<40%) | − (% SST5 radio-ligand binding displaced at cone (μM) −<40%) | + (% SST5 radio-ligand binding displaced at cone (μM) 60>+>40%) |
| COCC1OC(OCc2ccc(Cl)cc2)C(NC(=O)CN)C(OCc2ccc3ccccc3c2)C1O (mixture of isomers) [Compound 163] | − (% SST5 radio-ligand binding displaced at cone (μM) −<40%) | − (% SST5 radio-ligand binding displaced at cone (μM) −<40%) | – | − (% SST5 radio-ligand binding displaced at cone (μM) −<40%) | − (% SST5 radio-ligand binding displaced at cone (μM) −<40%) | ++ (% SST5 radio-ligand binding displaced at conc (μM) >60%) |
| COC1C(O)C(COCc2ccc3ccccc3c2)OC(OCc2ccc(Cl)cc2)C1NC(=O)C1CCCN1 (mixture of isomers) [Compound 165] | – | – | – | − (% SST5 radio-ligand binding displaced at cone (μM) −<40%) | – | ++ (% SST5 radio-ligand binding displaced at conc (μM) >60%) |
| COC1C(O)C(COCc2ccc3ccccc3c2)OC(OCc2ccc(Cl)cc2)C1NC(=O)C1CCCN1 (mixture of isomers) [Compound 167] | – | – | – | ++ (% SST5 radio-ligand binding displaced at conc (μM) >60%) | – | ++ (% SST5 radio-ligand binding displaced at conc (μM) >60%) |
| COCC1OC(OCc2ccc(Cl)cc2)C(NC(=O)CN)C(OCc2ccc(-c3ccccc3)cc2)C1O (mixture of isomers) [Compound 173] | – | – | − (% SST5 radio-ligand binding displaced at cone (μM) −<40%) | – | − (% SST5 radio-ligand binding displaced at cone (μM) −<40%) | – |
| COCC1OC(OCc2ccc(Cl)cc2)C(NC(=O)CN)C(OCc2ccc3ccccc3c2)C1O (mixture of isomers) [Compound 174] | – | – | − (% SST5 radio-ligand binding displaced at cone (μM) −<40%) | – | − (% SST5 radio-ligand binding displaced at cone (μM) −<40%) | – |
| COCC1OC(OCc2ccc(Cl)cc2)C(NC(=O)CN)C(OCc2ccc3ccccc3c2)C1O (mixture of isomers) [Compound 175] | – | – | − (% SST5 radio-ligand binding displaced at cone (μM) −<40%) | – | − (% SST5 radio-ligand binding displaced at cone (μM) −<40%) | – |
| COC1C(O)C(COCc2ccccc2)OC(OCc2ccc(Cl)cc2)C1NC(=O)CN (mixture of isomers) [Compound 176] | – | – | − (% SST5 radio-ligand binding displaced at cone (μM) −<40%) | – | − (% SST5 radio-ligand binding displaced at cone (μM) −<40%) | – |
| COC1C(O)C(COCc2ccc(Cl)cc2)OC(OCc2ccc(Cl)cc2)C1NC(=O)CN (mixture of isomers) [Compound 177] | – | – | − (% SST5 radio-ligand binding displaced at cone (μM) −<40%) | – | − (% SST5 radio-ligand binding displaced at cone (μM) −<40%) | – |
| COC1C(O)C(COCc2ccc(-c3ccccc3)cc2)OC(OCc2ccc(Cl)cc2)C1NC(=O)CN (mixture of isomers) [Compound 178] | – | – | − (% SST5 radio-ligand binding displaced at cone (μM) −<40%) | – | − (% SST5 radio-ligand binding displaced at cone (μM) −<40%) | – |
| COC1C(O)C(COCc2ccc3ccccc3c2)OC(OCc2ccc(Cl)cc2)C1NC(=O)CN (mixture of isomers) [Compound 179] | – | – | − (% SST5 radio-ligand binding displaced at cone (μM) −<40%) | – | − (% SST5 radio-ligand binding displaced at cone (μM) −<40%) | – |
| COC[C@H]1OC(OCc2ccc3ccccc3c2)[C@H](NC(=O)CCN)[C@@H](OCc2ccccc2)[C@@H]1O (single isomer, unassigned) [Compound 87] | – | – | − (% SST5 radio-ligand binding displaced at cone (μM) −<40%) | – | − (% SST5 radio-ligand binding displaced at cone (μM) −<40%) | – |
| COC[C@H]1OC(OCc2ccc3ccccc3c2)[C@H](NC(=O)CCN)[C@@H](OCc2ccccc2)[C@@H]1O (single isomer, unassigned) [Compound 88] | – | – | − (% SST5 radio-ligand binding displaced at cone (μM) −<40%) | – | − (% SST5 radio-ligand binding displaced at cone (μM) −<40%) | – |
| COC[C@H]1OC(OCc2ccc3ccccc3c2)[C@H](NC(=O)CCN)[C@@H](OCc2ccc(Cl)cc2)[C@@H]1O (single isomer, unassigned) [Compound 89] | – | – | − (% SST5 radio-ligand binding displaced at cone (μM) −<40%) | – | − (% SST5 radio-ligand binding displaced at cone (μM) −<40%) | – |
| COC[C@H]1OC(OCc2ccc3ccccc3c2)[C@H](NC(=O)CCN)[C@@H](OCc2ccc(Cl)cc2)[C@@H]1O (single isomer, unassigned) [Compound 90] | – | – | + (% SST5 radio-ligand binding displaced at cone (μM) 60>+>40%) | – | ++ (% SST5 radio-ligand binding displaced at conc (μM) >60%) | – |
| COC[C@H]1OC(OCc2ccc3ccccc3c2)[C@H](NC(=O)CCN)[C@@H](OCc2ccc(-c3ccccc3)cc2)[C@@H]1O (single isomer, unassigned) [Compound 91] | – | – | − (% SST5 radio-ligand binding displaced at cone (μM) −<40%) | – | − (% SST5 radio-ligand binding displaced at cone (μM) −<40%) | – |
| COC[C@H]1OC(OCc2ccc3ccccc3c2)[C@H](NC(=O)CCN)[C@@H](OCc2ccc3ccccc3c2)[C@@H]1O (single isomer, unassigned) [Compound 92] | – | – | − (% SST5 radio-ligand binding displaced at cone (μM) −<40%) | – | + (% SST5 radio-ligand binding displaced at cone (μM) 60>+>40%) | – |
